Experimental data taken from paper PMC4736156 (Drug delivery and translational research, 2016).
Where “and” joins values, the source holds several entries; their conditions need not be identical. Equal values may be shown once. Where a name gives a salt, the structure may show the parent alone.

Experiments:
HIV = conditions: tenofovir gel formulation, vaginal mucosa, CAPRISA 004; ref [4],[5]; cited from earlier work
[1] = in serum; ref [16]; cited from earlier work
[2] = Penetration and retention in mouse colorectal mucosa after rectal dosing; assay type: in vivo; conditions: mice, rectal 200 µl of 30 µM; at 2 h and 1 d; result in words
[3] = in vivo; cited from earlier work
recombinant HIV-1 PR = recombinant HIV-1 PR (Human immunodeficiency virus type 1 group M subtype B, UniProt P04585); assay: FRET-based HIV-1 PR inhibition assay; assay type: biochemical; conditions: FRET substrate 5.0 µM, HIV-1 PR 35.2 nM, 37 °C, mean ± s.d., n = 3

Molecule: C[C@H](Cn1cnc2c(N)ncnc21)OCP(=O)(O)O [tenofovir]
- effectiveness in preventing HIV transmission (HIV): 39%

Molecule: CC(C)OC(=O)OCOP(=O)(CO[C@H](C)Cn1cnc2c(N)ncnc21)OCOC(=O)OC(C)C [TDF, tenofovir disoproxil fumarate]
- half-life [1]: about 17 hours

Molecule: fluoresceine thiourea [FTU]
- mucosal tissue concentration [2]: negligible

Molecule: CC(Cn1cnc2c(N)ncnc21)OCP(=O)(O)OP(=O)(O)OP(=O)(O)O (stereo in doubt) [tenofovir diphosphate]
- vaginal concentrations in tissue after daily gel administration [3]: about 1000 fmol/mg

Molecule: CC(C)CN(C[C@@H](O)[C@H](Cc1ccccc1)NC(=O)O[C@H]1CCOC1)S(=O)(=O)c1ccc(N)cc1 [APV, amprenavir]
- cell viability compared to untreated cells (MT-2 cells): no statistical difference in comparison to untreated cells
- rate constant kobs of FRET substrate cleavage (slope of ln(F∞ – Ft) vs time) (recombinant HIV-1 PR; 1.0 µM APV): −0.1638 (± 0.0080) min^−1 and −0.1638 (± 0.007995) min^−1
- rate constant kobs of FRET substrate cleavage (slope of ln(F∞ – Ft) vs time) (recombinant HIV-1 PR; 2.0 µM APV): −0.0890 (± 0.0049) min^−1 and −0.0890 (± 0.004938) min^−1
- rate constant kobs of FRET substrate cleavage (slope of ln(F∞ – Ft) vs time) (recombinant HIV-1 PR; 5.0 µM APV): −0.03766 (± 0.0019) min^−1 and −0.03766 (± 0.00191) min^−1
